According to patent publication US20100311714A1, “1H-IMIDAZO[4,5-c]QUINOLINONE COMPOUNDS” (priority 2009, published 2010):

Target: T1, PI3K beta (Homo sapiens, UniProt P42338)
T1 construct: for the full-length p110-b subunit are generated and fused by overlapping PCR; His tag (C); made in house; host or cells: baculovirus BV949; Tn5 (Trichoplusia ni) or TiniPro insect cells
Assay: PI3K beta kinase assay (Kinase-Glo luminescence)
Assay type: biochemical
Conditions: read-out: EPK_PI3Kbeta/IC50
Method in brief: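 PI3Kβ construct BV949 (p85 iSH2–p110β full-length, C-His), 25 nM, reacted with 1 μM ATP and 10 μg/mL phosphatidylinositol in Tris pH 7.5, MgCl2, NaCl, CHAPS, DTT buffer, 60 min at room temperature. Remaining ATP by Kinase-Glo luminescence; IC50 from 4-parameter logistic fit of 8 concentrations.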

T1 sequence (P42338 with tags, fused parts or gaps limits assumed): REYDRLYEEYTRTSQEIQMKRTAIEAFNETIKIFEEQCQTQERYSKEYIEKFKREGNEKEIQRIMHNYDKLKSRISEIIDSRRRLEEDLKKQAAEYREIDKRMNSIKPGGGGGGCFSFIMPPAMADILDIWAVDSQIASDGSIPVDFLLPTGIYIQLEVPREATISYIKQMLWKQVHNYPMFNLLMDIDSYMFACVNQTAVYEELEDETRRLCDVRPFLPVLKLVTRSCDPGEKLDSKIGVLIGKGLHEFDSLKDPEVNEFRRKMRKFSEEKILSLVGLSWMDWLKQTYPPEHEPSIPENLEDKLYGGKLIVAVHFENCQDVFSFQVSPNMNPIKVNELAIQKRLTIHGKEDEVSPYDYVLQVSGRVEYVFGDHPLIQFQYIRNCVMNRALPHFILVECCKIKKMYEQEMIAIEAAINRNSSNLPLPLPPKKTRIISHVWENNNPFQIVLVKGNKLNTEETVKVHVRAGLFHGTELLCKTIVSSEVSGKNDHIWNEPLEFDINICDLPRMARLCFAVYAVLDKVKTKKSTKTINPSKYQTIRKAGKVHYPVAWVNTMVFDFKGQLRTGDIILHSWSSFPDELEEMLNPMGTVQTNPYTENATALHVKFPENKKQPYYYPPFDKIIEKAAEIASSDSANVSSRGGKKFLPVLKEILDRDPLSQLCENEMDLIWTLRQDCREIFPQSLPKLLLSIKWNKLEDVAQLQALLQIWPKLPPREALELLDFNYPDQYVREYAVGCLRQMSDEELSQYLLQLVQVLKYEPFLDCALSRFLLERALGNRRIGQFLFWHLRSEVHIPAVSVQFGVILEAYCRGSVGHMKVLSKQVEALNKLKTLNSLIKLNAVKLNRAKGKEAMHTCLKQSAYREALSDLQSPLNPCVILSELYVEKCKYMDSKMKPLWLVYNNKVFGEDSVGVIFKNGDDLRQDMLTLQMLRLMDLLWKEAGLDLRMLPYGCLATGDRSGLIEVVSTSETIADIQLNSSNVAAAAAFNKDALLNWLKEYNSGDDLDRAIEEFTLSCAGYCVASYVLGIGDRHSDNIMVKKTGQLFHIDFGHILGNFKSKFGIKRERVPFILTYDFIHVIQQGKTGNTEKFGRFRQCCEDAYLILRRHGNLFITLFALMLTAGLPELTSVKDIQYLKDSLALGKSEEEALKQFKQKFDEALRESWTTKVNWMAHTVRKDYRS

| SMILES | IC50 [nM] |
| --- | --- |
| Cc1nc(N2CC(F)(F)C(F)(F)C2)ccc1-n1c(=O)n(C)c2cnc3ccc(-c4cncc(C(C)(C)O)c4)cc3c21 [Example 35.1, 8-[5-(1-Hydroxy-1-methyl-ethyl)-pyridin-3-yl]-3-methyl-1-[2-methyl-6-(3,3,4,4-tetrafluoro-pyrrolidin-1-yl)-pyridin-3-yl]-1,3-dihydro-imidazo[4,5-c]quinolin-2-one] | 34 |
| COCc1ncc(-c2ccc3ncc4c(c3c2)n(-c2ccc(OC)nc2OC)c(=O)n4C)cc1OC [Example 8.12, 1-(2,6-Dimethoxy-pyridin-3-yl)-8-(5-methoxy-6-methoxymethyl-pyridin-3-yl)-3-methyl-1,3-dihydro-imidazo[4,5-c]quinolin-2-one] | 212 |
| CCOc1ccc(-c2ccc3ncc4c(c3c2)n(-c2ccc(N(C)CCOC)nc2C)c(=O)n4C)cn1 [Example 15.3, 8-(6-Ethoxy-pyridin-3-yl)-1-{6-[(2-methoxy-ethyl)-methyl-amino]-2-methyl-pyridin-3-yl}-3-methyl-1,3-dihydro-imidazo[4,5-c]quinolin-2-one] | 793 |
| CCOc1ccc(-c2ccc3ncc4c(c3c2)n(-c2cncc(C)c2)c(=O)n4C)cn1 [Example 17.1, 8-(6-Ethoxy-pyridin-3-yl)-3-methyl-1-(5-methyl-pyridin-3-yl)-1,3-dihydro-imidazo[4,5-c]quinolin-2-one] | 3950 |
| Cc1nc(N2CCC(O)C2)ccc1-n1c(=O)n(C)c2cnc3ccc(-c4cncc(OC(C)C)c4)cc3c21 (centres unmarked) [Example 27.1, 1-[6-(3-Hydroxy-pyrrolidin-1-yl)-2-methyl-pyridin-3-yl]-8-(5-isopropoxy-pyridin-3-yl)-3-methyl-1,3-dihydro-imidazo[4,5-c]quinolin-2-one] | 13 |
| Cc1cc(F)ncc1-n1c(=O)n(C)c2cnc3ccc(-c4cnc(N)c(C(F)(F)F)c4)cc3c21 [Example 16.1, 8-(6-Amino-5-trifluoromethyl-pyridin-3-yl)-1-(6-fluoro-4-methyl-pyridin-3-yl)-3-methyl-1,3-dihydro-imidazo[4,5-c]quinolin-2-one] | 47 |
| COCCN(C)c1ccc(-n2c(=O)n(C)c3cnc4ccc(-c5cnc(N(C)C)nc5)cc4c32)c(C)n1 [Example 15.5, 8-(2-Dimethylamino-pyrimidin-5-yl)-1-{6-[(2-methoxy-ethyl)-methyl-amino]-2-methyl-pyridin-3-yl}-3-methyl-1,3-dihydro-imidazo[4,5-c]quinolin-2-one] | 448 |
| Cc1ccc(-n2c(=O)n(C)c3cnc4ccc(-c5cncc(NC(C)C)c5)cc4c32)c(C)n1 [Example 14.8, 1-(2,6-Dimethyl-pyridin-3-yl)-8-(5-isopropylamino-pyridin-3-yl)-3-methyl-1,3-dihydro-imidazo[4,5-c]quinolin-2-one] | 53 |
| COCCOc1cc(-c2ccc3ncc4c(c3c2)n(-c2ccc(OC)nc2OC)c(=O)n4C)cnc1C [Example 8.9, 1-(2,6-Dimethoxy-pyridin-3-yl)-8-[5-(2-methoxy-ethoxy)-6-methyl-pyridin-3-yl]-3-methyl-1,3-dihydro-imidazo[4,5-c]quinolin-2-one] | 43 |
| COc1ccc(-n2c(=O)n(C)c3cnc4ccc(-c5cnc(N(C)C)nc5)cc4c32)c(Cl)n1 [Example 18.3, 1-(2-Chloro-6-methoxy-pyridin-3-yl)-8-(2-dimethylamino-pyrimidin-5-yl)-3-methyl-1,3-dihydro-imidazo[4,5-c]quinolin-2-one] | 45 |
| CNc1ncc(-c2ccc3ncc4c(c3c2)n(-c2cnc(F)cc2C)c(=O)n4C)cn1 [Example 16.3, 1-(6-Fluoro-4-methyl-pyridin-3-yl)-3-methyl-8-(2-methylamino-pyrimidin-5-yl)-1,3-dihydro-imidazo[4,5-c]quinolin-2-one] | 1180 |
| CCOc1ccc(-c2ccc3ncc4c(c3c2)n(-c2ccc(OCCOC)nc2C)c(=O)n4C)cn1 [Example 13.1, 8-(6-Ethoxy-pyridin-3-yl)-1-[6-(2-methoxy-ethoxy)-2-methyl-pyridin-3-yl]-3-methyl-1,3-dihydro-imidazo[4,5-c]quinolin-2-one] | 1950 |

Other lines, results leading:

| IC50 [nM] | SMILES |
| --- | --- |
| 27 | CCNc1cc(-c2ccc3ncc4c(c3c2)n(-c2ccc(N3CC(F)(F)C3)nc2C)c(=O)n4C)cnc1CO [Example 24.3, 1-[6-(3,3-Difluoro-azetidin-1-yl)-2-methyl-pyridin-3-yl]-8-(5-ethylamino-6-hydroxymethyl-pyridin-3-yl)-3-methyl-1,3-dihydro-imidazo[4,5-c]quinolin-2-one] |
| 407 | CNc1ccc(-c2ccc3ncc4c(c3c2)n(-c2ccc(N(C)CCOC)nc2C)c(=O)n4C)cn1 [Example 15.4, 1-{6-[(2-Methoxy-ethyl)-methyl-amino]-2-methyl-pyridin-3-yl}-3-methyl-8-(6-methylamino-pyridin-3-yl)-1,3-dihydro-imidazo[4,5-c]quinolin-2-one] |
| 28 | CCNc1cc(-c2ccc3ncc4c(c3c2)n(-c2ccc(N(C)CCOC)nc2C)c(=O)n4C)cnc1C [Example 15.6, 8-(5-Ethylamino-6-methyl-pyridin-3-yl)-1-{6-[(2-methoxy-ethyl)-methyl-amino]-2-methyl-pyridin-3-yl}-3-methyl-1,3-dihydro-imidazo[4,5-c]quinolin-2-one] |
| 188 | Cc1nc(F)ccc1-n1c(=O)n(C)c2cnc3ccc(-c4cnc(N)c(CO)c4)cc3c21 [Example 7.17, 8-(6-Amino-5-hydroxymethyl-pyridin-3-yl)-1-(6-fluoro-2-methyl-pyridin-3-yl)-3-methyl-1,3-dihydro-imidazo[4,5-c]quinolin-2-one] |
| 154 | CCN(C)c1ccc(-n2c(=O)n(C)c3cnc4ccc(-c5ccc(NC)nc5)cc4c32)c(C)n1 [Example 12.1, 1-[6-(Ethyl-methyl-amino)-2-methyl-pyridin-3-yl]-3-methyl-8-(6-methylamino-pyridin-3-yl)-1,3-dihydro-imidazo[4,5-c]quinolin-2-one] |
| 38 | COCC(=O)Nc1ccc(-n2c(=O)n(C)c3cnc4ccc(-c5cncc(N)c5)cc4c32)c(C)n1 [Example 20.1, N-{5-[8-(5-Amino-pyridin-3-yl)-3-methyl-2-oxo-2,3-dihydro-imidazo[4,5-c]quinolin-1-yl]-6-methyl-pyridin-2-yl}-2-methoxy-acetamide] |
| 236 | Cc1nc(F)ccc1-n1c(=O)n(C)c2cnc3ccc(-c4cncc(N)c4)cc3c21 [Example 7.16, 8-(5-Amino-pyridin-3-yl)-1-(6-fluoro-2-methyl-pyridin-3-yl)-3-methyl-1,3-dihydro-imidazo[4,5-c]quinolin-2-one] |
| 15 | COCCN(C)c1ccc(-n2c(=O)n(C)c3cnc4ccc(-c5cnc(N)c(C(F)(F)F)c5)cc4c32)c(C)n1 [Example 15.1, 8-(6-Amino-5-trifluoromethyl-pyridin-3-yl)-1-{6-[(2-methoxy-ethyl)-methyl-amino]-2-methyl-pyridin-3-yl}-3-methyl-1,3-dihydro-imidazo[4,5-c]quinolin-2-one] |
| 38 | CNc1cc(-c2ccc3ncc4c(c3c2)n(-c2ccc(C(F)(F)F)nc2C)c(=O)n4C)cnc1CO [Example 33.2, 8-(6-Hydroxymethyl-5-methylamino-pyridin-3-yl)-3-methyl-1-(2-methyl-6-trifluoromethyl-pyridin-3-yl)-1,3-dihydro-imidazo[4,5-c]quinolin-2-one] |
| 265 | CNc1ncc(-c2ccc3ncc4c(c3c2)n(-c2ccc(F)nc2C)c(=O)n4C)cc1F [Example 7.12, 8-(5-Fluoro-6-methylamino-pyridin-3-yl)-1-(6-fluoro-2-methyl-pyridin-3-yl)-3-methyl-1,3-dihydro-imidazo[4,5-c]quinolin-2-one] |
| 69 | CCNc1cc(-c2ccc3ncc4c(c3c2)n(-c2ccc(F)nc2C)c(=O)n4C)cnc1CO [Example 7.9, 8-(5-Ethylamino-6-hydroxymethyl-pyridin-3-yl)-1-(6-fluoro-2-methyl-pyridin-3-yl)-3-methyl-1,3-dihydro-imidazo[4,5-c]quinolin-2-one] |
| 592 | CNc1ccc(-c2ccc3ncc4c(c3c2)n(-c2ccc(NC(=O)COC)nc2C)c(=O)n4C)cn1 [Example 20.4, 2-Methoxy-N-{6-methyl-5-[3-methyl-8-(6-methylamino-pyridin-3-yl)-2-oxo-2,3-dihydro-imidazo[4,5-c]quinolin-1-yl]-pyridin-2-yl}-acetamide] |
| 1330 | CNc1ccc(-c2ccc3ncc4c(c3c2)n(-c2cnc(F)cc2C)c(=O)n4C)cn1 [Example 16.4, 1-(6-Fluoro-4-methyl-pyridin-3-yl)-3-methyl-8-(6-methylamino-pyridin-3-yl)-1,3-dihydro-imidazo[4,5-c]quinolin-2-one] |
| 62 | CCNc1cc(-c2ccc3ncc4c(c3c2)n(-c2ccc(OCCOC)nc2C)c(=O)n4C)cnc1C [Example 13.4, 8-(5-Ethylamino-6-methyl-pyridin-3-yl)-1-[6-(2-methoxy-ethoxy)-2-methyl-pyridin-3-yl]-3-methyl-1,3-dihydro-imidazo[4,5-c]quinolin-2-one] |
| 9 | Cc1ccc(-n2c(=O)n(C)c3cnc4ccc(-c5cnc(N)c(C(F)(F)F)c5)cc4c32)c(C)n1 [Example 14.5, 8-(6-Amino-5-trifluoromethyl-pyridin-3-yl)-1-(2,6-dimethyl-pyridin-3-yl)-3-methyl-1,3-dihydro-imidazo[4,5-c]quinolin-2-one] |

Same assay, conditions: read-out: PI3Kbeta/IC50

| IC50 [nM] | SMILES |
| --- | --- |
| 374 | CNc1ccc(-c2ccc3ncc4c(c3c2)n(-c2cccnc2OC)c(=O)n4C)cn1 [Example 1.4, 1-(2-Methoxy-pyridin-3-yl)-3-methyl-8-(6-methylamino-pyridin-3-yl)-1,3-dihydro-imidazo[4,5-c]quinolin-2-one] |
| 202 | COc1ccc(-c2ccc3ncc4c(c3c2)n(-c2cccnc2OC)c(=O)n4C)cn1 [Example 1.1, 1-(2-Methoxy-pyridin-3-yl)-8-(6-methoxy-pyridin-3-yl)-3-methyl-1,3-dihydro-imidazo[4,5-c]quinolin-2-one] |
